# Key:
# [1] = test system: T. brucei TC221; experiment: Viability of T. brucei TC221 bloodstream forms (resazurin fluorescence); type: cell-based, Trypanosoma brucei
# Method: (§1) The biological assays have been conducted in collaboration with Prof. Anders Hofer, Department of Medical Biochemistry and Biophysics, Umeå University, Umeå, Sweden. T. bruceiTC221 bloodstream forms and mouse embryonic fibroblast Balb/3T3 cells (ATCC no CCL-163) were cultivated in a vented plastic flask at 37 °C with 5% CO2. For T. brucei, the growth medium was Hirumi’s modified Iscoves medium (HMI)-9 supplemented with 10% (v/v) fetal bovine serum (Thermo Fischer Scientific Gibco, Waltham, MA, USA), whereas the Balb/3T3 cells were grown in Dulbecco’s modified Eagle’s medium (Sigma-Aldrich) supplemented with 10% (v/v) heat-inactivated fetal bovine serum, glutamine (0.584 g/L), and 10 mL/L 100 × penicillin–streptomycin (Gibco).[48]−[50] […] The plates were incubated for 48 h in the 5%CO2 incubator; then, 20 μL of 0.5 mM resazurine (Sigma-Aldrich) was added to each well, and the plates were incubated for an additional 24 h before the fluorescence was measured with the Synergy H4 microplate reader (excitation wavelength 530 or 540 nm and emission wavelength 590 nm).
# (§2) The half-maximal efficacious concentration (EC50) values were calculated on the log inhibitor versus the response curves by non-linear regression using the GraphPad prism 5.2 software (GraphPad Software, Inc., La Jolla, CA, USA). […]
# [2] = test system: Balb/3T3 cells; experiment: Cytotoxicity on Balb/3T3 mammalian reference cells (resazurin fluorescence); type: cell-based; conditions: mouse embryonic fibroblasts, 48 h + 24 h with resazurin
# Method: as §1, §2
smiles,measurement,setting,value
"Cc1ccc(C(=O)Nc2ccc(S(=O)(=O)O)c3cc(S(=O)(=O)O)cc(S(=O)(=O)O)c23)cc1NC(=O)c1cccc(NC(=O)Nc2cccc(C(=O)Nc3cc(C(=O)Nc4ccc(S(=O)(=O)O)c5cc(S(=O)(=O)O)cc(S(=O)(=O)O)c45)ccc3C)c2)c1 [suramin, reference compound]",SI (selectivity index),[1]; T. brucei versus Balb/3T3 reference cells,>100
same,EC50,"[1]; Trypanosoma brucei, bloodstream forms, 48 h + 24 h with resazurin",0.023 ± 0.0008 µM
same,EC50,[2],43.9 ± 1.44 µM

# — PMC9446893, “Zinc(II) Complex with Pyrazolone-Based Hydrazones is Strongly Effective against Trypanosoma brucei Which Causes African Sleeping Sickness” (Inorganic Chemistry, 2022)
